In paper PMC12630292 (Journal of Neural Transmission, 2025) one finds Emax and 5HT2A antagonist actions data, which are given here for one compound.

Like-named read-outs stand apart in the source and are kept apart here.

Assay [1] addresses T1, D1 receptor (Homo sapiens, UniProt P21728). In words: cell-based. The conditions noted are these: read-out: Emax relative to dopamine, β-arrestin assay D1.
The target in another assay is D4 receptor (Homo sapiens, UniProt P21917). In words: cell-based. To be noted: read-out: Emax relative to dopamine, β-arrestin assay D4.
For assay [2], the target named is T1, D1 receptor. In words: cell-based. To be noted: read-out: Emax relative to dopamine, internalization assay D1.
The next assay relates to 5HT2A. To be noted: ref Millan et al. [2002]; Newman-Tancredi et al. [2002]; cited from earlier work.
Another assay has as its target D2L receptor (Homo sapiens, UniProt P14416). In words: cell-based. The conditions noted are these: read-out: Emax relative to dopamine, β-arrestin assay D2L.
Another assay has as its target D2S receptor (Homo sapiens, UniProt P14416). The experiment in a line: cell-based. To be noted: read-out: Emax relative to dopamine, β-arrestin assay D2S.
The next assay deals with D3 receptor (Homo sapiens, UniProt P35462). The experiment in a line: cell-based. The conditions noted are these: read-out: Emax relative to dopamine, β-arrestin assay D3.

In the case of `CN1CCc2cccc3c2[C@H]1Cc1ccc(O)c(O)c1-3` [Apomorphine], the Emax (usually the maximal effect, on the per cent scale that the assay sets) amounted to 28% at D1 receptor [1]; 52% at D4 receptor; 38% at D1 receptor [2]; 83% on D2L receptor; 90% on D2S receptor; 89% at D3 receptor. The 5HT2A antagonist actions entry with 5HT2A is listed as “weak”.
